Here are results for four molecules from patent US9921225B2, “Phenyl glyoxal probes” (The Scripps Research Institute, priority 2012, dated 2018).

“And” between values parts separate entries of the source, which are not always exact repeats. Equal values may be shown once.

For test [1], the target named is T1, autodeiminated PAD4 (Homo sapiens, UniProt Q9UM07). Nature of the test: Rh-PG limit of detection, SDS-PAGE and fluorescent imaging. The conditions noted are these: Example 1; 20% TCA, 0.1 mM Rh-PG, 37° C., 3 h; LOD defined as three times the noise. The method, then:
The sensitivity of the probe was analyzed next (FIGS. 5A, 5B). Autodeiminated PAD4, prepared as described above, was diluted into 50 mM HEPES pH 8.0 to final concentrations of 1.6 μM, 0.16 μM, 16 nM, 1.6 nM, and 0.16 nM. To one set of samples was added 0.1 mM Rh-PG, and to a second set, 20% TCA and 0.1 mM Rh-PG. The samples were then incubated at 37° C. for 3 h. To TCA precipitate autodeiminated PAD4, the acidic solutions were cooled on ice for 30 min and then centrifuged at 14,000 rpm for 15 min at 4° C. The supernatant was removed and samples were washed with cold acetone and dried at 100° C. for 5 min. Proteins were resuspended in 25 μL of 50 mM HEPES. Both basic and acidic samples were then boiled with 6×SDS loading dye and various amounts of protein (i.e., 1000, 100, 10, 1, and 0.1 ng) loaded onto a 12% SDS-PAGE gel. Gel electrophoresis was performed at 170 V for 60 min and the gels analyzed on a Typhoon Imager (Ex. 532 nm; Em. 580 nm) (FIGS. 5A, 5B). […]
Rh-PG Limit of Detection: Citrullinated H3 and autodeiminated PAD4, prepared as described above, were diluted into 50 mM HEPES pH 7.6 to final concentrations of (2.2 μM, 0.22 μM, 22 nM, 2.2 nM, and 0.22 nM H3) and (0.16 μM, 16 nM, 1.6 nM, 0.16 nM, and 0.016 nM PAD4). […] Gel electrophoresis was performed at 170 V for 50 min and the gels analyzed on a Typhoon Imager (Ex. 532 nm; Em. 580 nm).

A further test has as its target PAD4 (Homo sapiens, UniProt Q9UM07). Nature of the test: Steady-state kinetic assay of protein citrullination using Rh-PG. It is filed as biochemical. The conditions noted are these: recombinant huApoA1, Rh-PG readout.
The target in the next test is PAD2 (Homo sapiens, UniProt Q9Y2J8). In words: Kinetic characterization of ApoA1 as a PAD substrate using Rh-PG. It is filed as biochemical. The note with it: recombinant huApoA1, Rh-PG readout. On the procedure:
(§1) To verify that ApoA1 is the modified 25 kDa protein in the UC samples, anti-ApoA1 Western blotting of Biotin-PG pulldown samples was performed (FIG. 24A). […] To test human ApoA1 as a PAD substrate, recombinant huApoA1 was first treated ±PADs 1-4 and then analyzed with the Rh-PG probe (FIG. 24B). […] PADs 2, 3, and 4 also modified ApoA1, albeit to a lesser extent. To further evaluate citrullination of ApoA1, the steady state kinetic parameters were determined using Rh-PG.

For another test, the target named is T2, PAD3 (Homo sapiens, UniProt Q9ULW8).
T2 sequence (Q9ULW8 1-664): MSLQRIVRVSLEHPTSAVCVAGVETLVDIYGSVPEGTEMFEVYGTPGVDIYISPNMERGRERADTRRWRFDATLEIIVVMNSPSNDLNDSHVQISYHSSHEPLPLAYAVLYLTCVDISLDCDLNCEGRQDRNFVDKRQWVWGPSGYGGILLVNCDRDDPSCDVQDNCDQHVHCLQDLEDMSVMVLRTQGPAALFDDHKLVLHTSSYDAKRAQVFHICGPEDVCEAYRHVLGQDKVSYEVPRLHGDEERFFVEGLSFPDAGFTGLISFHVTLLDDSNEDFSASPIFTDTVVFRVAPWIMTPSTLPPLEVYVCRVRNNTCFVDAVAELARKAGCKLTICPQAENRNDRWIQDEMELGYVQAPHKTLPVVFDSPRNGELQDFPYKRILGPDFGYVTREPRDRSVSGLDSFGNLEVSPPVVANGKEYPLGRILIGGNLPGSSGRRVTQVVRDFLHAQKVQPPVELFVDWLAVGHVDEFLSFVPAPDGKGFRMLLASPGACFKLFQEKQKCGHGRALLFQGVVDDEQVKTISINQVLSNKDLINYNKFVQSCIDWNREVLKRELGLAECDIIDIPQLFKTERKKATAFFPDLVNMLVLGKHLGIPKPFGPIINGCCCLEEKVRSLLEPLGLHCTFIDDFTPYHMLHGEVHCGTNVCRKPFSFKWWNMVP
The test is described as above. It is filed as biochemical. The conditions noted are these: recombinant huApoA1, Rh-PG readout. The method, then:
as §1

The target in test [2] is T1, autodeiminated PAD4. Nature of the test: Biotin-PG limit of detection, streptavidin-HRP blot. The conditions noted are these: Example 1; 20% TCA, 0.1 mM Biotin-PG, 37° C., 3 h. On the procedure:
Biotin-PG Pulldown and Labeling—It was next set out to determine the utility of the biotin-tagged PG probe, Biotin-PG (FIG. 2), as a tool for labeling, isolating, and enriching citrullinated proteins. As with the Rh-PG probe, the LOD of this probe was first determined with respect to autodeiminated PAD4. For these studies, autodeiminated PAD4, prepared as described above, was diluted into 50 mM HEPES pH 8.0 to final concentrations of 1.6 μM, 0.16 μM, 16 nM, 1.6 nM, and 0.16 nM. These samples were then incubated at 37° C. for 3 h with 20% TCA and 0.1 mM Biotin-PG. Solutions were quenched, cooled on ice for 30 min, and centrifuged at 14,000 rpm for 15 min at 4° C. The supernatant was removed and samples were washed with cold acetone and dried at 100° C. for 5 min. Proteins were resuspended in 25 μL of 50 mM HEPES and boiled with 6×SDS loading dye and various amounts of protein (i.e., 1,000, 100, 10, 1, and 0.1 ng) loaded onto a 12% SDS-PAGE gel. Gel electrophoresis was performed at 200 V for 50 min and proteins were subsequently electrotransferred to nitrocellulose (tris-glycine buffer; 80 V; 70 min) and the membrane blocked with 5% BSA in PBS for 1 h at rt. After washing 2× with PBS (10 min), the blot was treated with streptavidin-HRP (1:20,000) in 5% BSA in PBS for 1 h at rt. […]

The test system of test [3] is serum protein citrullination. Nature of the test: Rh-PG analysis of murine ulcerative colitis serum samples. It is filed as in vivo, mouse. The conditions noted are these: serum of DSS mice treated with Cl-amidine. On the procedure:
Rh-PG Analysis of Murine Ulcerative Colitis Serum Samples: Serum samples Cl-amidine efficacy in a mouse model of ulcerative colitis were obtained and analyzed by the Rh-PG method. Briefly, the protein concentration of serum samples was first obtained using a standard Lowry assay. A sample (2 mg/mL; 30 μL) of each serum sample (i.e., 14 total; 7 DSS; 7 DSS+Cl-amidine) was prepared in 50 mM HEPES and treated with 20% TCA and 0.1 mM Rh-PG for 30 min at 37° C. Samples were then quenched with citrulline, cooled, centrifuged, washed, and dried. After resuspending in 50 mM HEPES, samples were separated by SDS-PAGE (12%; 170 V; 50 min) and imaged on a Typhoon Imager (Ex. 532 nm; Em. 580 nm). Images were analyzed using ImageQuant 5.2 and correlation coefficients were determined using Microsoft Excel. These experiments were run in duplicate on different days. Subsequent statistical analysis was done using STATISTICA, utilizing two-tailed, independent student's t-tests to determine significance (i.e., P-value) between diseased and Cl-amidine treated samples. Correlation coefficients were calculated in Microsoft Excel, utilizing a table of critical values of Pearson's r with a degree of freedom value of 12 (n−2) to determine the significance (i.e., P-value) of the correlation between the fluorescence of a particular protein and a disease score.

The test system of test [4] is DSS induced ulcerative colitis. The note with it: cited from earlier work.
Where [5] appears, read: group average, Group 8 WT, 2% DSS + Cl-Amidine @ 75 mg/kg.
[6] abbreviates: individual mice, Group 8 WT, 2% DSS + Cl-Amidine @ 75 mg/kg.

T1 sequence (Q9UM07 whole entry): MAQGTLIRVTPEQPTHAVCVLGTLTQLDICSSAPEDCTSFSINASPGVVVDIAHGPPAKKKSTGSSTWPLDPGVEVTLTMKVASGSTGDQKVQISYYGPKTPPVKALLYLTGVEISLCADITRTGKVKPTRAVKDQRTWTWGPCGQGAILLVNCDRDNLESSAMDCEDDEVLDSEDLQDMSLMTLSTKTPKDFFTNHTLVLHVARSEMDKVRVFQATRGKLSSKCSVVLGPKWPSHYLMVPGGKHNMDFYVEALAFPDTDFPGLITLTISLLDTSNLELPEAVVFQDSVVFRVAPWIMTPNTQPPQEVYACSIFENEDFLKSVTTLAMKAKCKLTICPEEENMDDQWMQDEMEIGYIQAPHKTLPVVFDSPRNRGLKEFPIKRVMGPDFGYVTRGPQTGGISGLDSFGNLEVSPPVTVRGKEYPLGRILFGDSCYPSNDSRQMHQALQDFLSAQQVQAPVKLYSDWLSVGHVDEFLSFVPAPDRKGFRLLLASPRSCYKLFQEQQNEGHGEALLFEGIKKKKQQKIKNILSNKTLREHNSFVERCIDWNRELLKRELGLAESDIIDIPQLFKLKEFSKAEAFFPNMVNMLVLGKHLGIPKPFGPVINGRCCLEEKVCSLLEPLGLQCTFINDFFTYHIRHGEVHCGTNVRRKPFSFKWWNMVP
Chain of PAD2 (Q9Y2J8 whole entry, species assumed): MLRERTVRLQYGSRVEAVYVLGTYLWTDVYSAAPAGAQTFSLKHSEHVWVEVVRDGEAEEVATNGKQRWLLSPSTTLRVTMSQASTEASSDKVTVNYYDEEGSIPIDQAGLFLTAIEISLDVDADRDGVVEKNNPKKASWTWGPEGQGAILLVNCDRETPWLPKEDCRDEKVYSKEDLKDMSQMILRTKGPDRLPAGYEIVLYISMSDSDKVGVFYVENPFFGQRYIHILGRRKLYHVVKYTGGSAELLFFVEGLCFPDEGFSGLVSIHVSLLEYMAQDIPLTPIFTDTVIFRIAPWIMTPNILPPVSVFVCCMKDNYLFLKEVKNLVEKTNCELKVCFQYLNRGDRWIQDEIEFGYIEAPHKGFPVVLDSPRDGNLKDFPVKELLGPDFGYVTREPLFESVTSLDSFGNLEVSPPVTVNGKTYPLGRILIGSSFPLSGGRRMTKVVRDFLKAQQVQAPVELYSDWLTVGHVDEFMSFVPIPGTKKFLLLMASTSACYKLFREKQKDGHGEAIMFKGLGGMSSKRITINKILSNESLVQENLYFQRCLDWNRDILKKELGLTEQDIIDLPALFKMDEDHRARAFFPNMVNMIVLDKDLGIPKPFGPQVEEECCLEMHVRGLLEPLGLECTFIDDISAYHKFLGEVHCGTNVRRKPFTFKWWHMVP
Chain of PAD4 (Q9UM07 whole entry, species assumed): as the sequence (Q9UM07 whole entry) above

With `CC(C(=O)Nc1cccc(C(=O)C=O)c1)n1cc(CNC(=O)c2ccc3c(c2)C2(OC3=O)c3ccc(N(C)C)cc3Oc3cc(N(C)C)ccc32)nn1` (stereo not shown) [Rh-PG, N-(3-Glyoxyl)phenylamino)propionyl)-1H-1,2,3-triazol-4-yl)methyl-5(6)-carboxamidotetramethyl rhodamine hydrate], the “limit of detection (LOD) of Rh-PG probe labeling of autodeiminated PAD4” value at autodeiminated PAD4 [1] is listed as 1 ng.

With “ApoA1: apolipoprotein-A1, a key component of High Density Lipoprotein; recombinant huApoA1 tested as PAD substrate”, the “substrate quality for PAD4” value in the test with PAD4 is given as “modest substrate”. In the test with PAD2, the “substrate quality for PAD2” value is reported as “modest substrate”. In the test with PAD3, the “substrate quality for PAD3” value is reported as “modest substrate”.

In the case of `O=CC(=O)c1cccc(NC(=O)CCn2cc(CCCC(=O)NCCNC(=O)CCCC[C@@H]3SC[C@@H]4NC(=O)N[C@@H]43)nn2)c1` [Biotin-PG], on autodeiminated PAD4 [2], the “limit of detection of Biotin-PG probe, autodeiminated PAD4” value was determined as 100 ng.

With `NC(=O)[C@H](CCCN=C(N)CCl)NC(=O)c1ccccc1` [Cl-amidine], in test [3], the “effect on global citrullination (whole lane)” value is recorded as “significantly decreases global citrullination”. Besides, the disease severity result in test [4] (DSS mouse model of ulcerative colitis, previous study (Chumanevich 2011)) is “reduces disease severity”. In test [4] (setting [5]), the “Colon Length, Average” value is 8.1 cm; the “Inflam. Score, Average” value is 14.6; the “Lym, Average” value is given as 8.2 m/mm^3; the “WBC, Average” value was 13.7 m/mm^3. In addition, in test [4] (setting [5]), the Weight (end), Average was 23.3 g and the “Weight Diff., Average” value was 0.7 g. Further, in test [4] (setting [6]), the “Colon Length” value was 7.6 cm (2×) and 8.1 cm and 8.2 cm and 8.6 cm and 8 cm and 8.4 cm; the “Inflam. Score” value was 14 (2×) and 24 and 12 (2×) and 10 and 16; the Lym is 5.68 m/mm^3 and 3.87 m/mm^3 and 11.35 m/mm^3 and 9.4 m/mm^3 and 6.87 m/mm^3 and 9.35 m/mm^3 and 10.83 m/mm^3; the WBC was 9.75 m/mm^3 and 9.08 m/mm^3 and 18.14 m/mm^3 and 15.12 m/mm^3 and 11.46 m/mm^3 and 15.91 m/mm^3 and 16.41 m/mm^3. For the same molecule, the “Weight Diff.” value in test [4] (setting [6]) is 0.8 g (2×) and 0.15 g and 1.3 g and 0.5 g and 0.7 g and 0.3 g. Also, the “Weight (end)” value in test [4] (individual mice, Group 8 WT, 2% DSS + Cl-Amidine @ 75 mg/kg, in g) was 23.4 and 22.05 and 22.7 and 24.1 and 25 and 22.5 and 23.6.
